For one assay, the target named is T1, dopamine D1 receptor (Sus scrofa, UniProt P50130).
T1 construct: native membrane preparations from porcine striatum; from tissue; host or cells: porcine striatum
The assay can be described thus: radioligand binding assay, dopamine D1 receptor, [3H]SCH 23390. The following applies: porcine striatum membranes, mean of two to five experiments in triplicate, read-out: Ki D1. From the text: (§1) Biological activity of the compounds has been determined in radioligand binding assays. These experiments have been done according to methods which are described in literature (Hübner, H. et al., J. Med. Chem. (2000), 43, 7562). For the determination of binding affinity to the receptors of the dopamine D2 family membranes were established carrying the human D2long, D2short, D3 or D4.4 receptor subtype stably expressed in Chinese hamster ovary cell lines. In principle, the binding experiments started when incubating an appropriate amount of membrane with the radioligand [^3H]spiperone and the particular test compounds used in a wide range of different concentrations from subnanomolar up to micromolar ones. In the same way, binding affinities of the test compounds to the dopamine D1 receptor were determined when using native membrane preparations from porcine striatum and the D1 selective radioligand [^3H]SCH 23390.
(§2) The results of the binding experiments are summarized in Table 1 as mean values of two to five individual experiments each done in triplicate and expressed as Ki values in nM.

A further assay has as its target human D2long, D2short (Homo sapiens, UniProt P14416). The assay can be described thus: biochemical. The following applies: CHO cell membranes, [3H]spiperone; mean of two to five experiments in triplicate; read-out: Ki D2. Format: binding. The method, then: as §1, with “These” for “Biological activity of the compounds has been determined in radioligand binding assays. These”, “ones.” for “ones. In the same way, binding affinities of the test compounds to the dopamine D1 receptor were determined when using native membrane preparations from porcine striatum and the D1 selective radioligand [^3H]SCH 23390.”

A further assay concerns the target human D3 (Homo sapiens, UniProt P35462). The assay can be described thus: radioligand binding assay, dopamine D3 receptor, [3H]spiperone. The following applies: CHO cell membranes, mean of two to five experiments in triplicate, read-out: Ki D3. The procedure:
as §1, with “These” for “Biological activity of the compounds has been determined in radioligand binding assays. These”, “ones.” for “ones. In the same way, binding affinities of the test compounds to the dopamine D1 receptor were determined when using native membrane preparations from porcine striatum and the D1 selective radioligand [^3H]SCH 23390.”

The target in another assay is T2, human D4.4 (Homo sapiens, UniProt P21917).
T2 sequence (P21917 1-419): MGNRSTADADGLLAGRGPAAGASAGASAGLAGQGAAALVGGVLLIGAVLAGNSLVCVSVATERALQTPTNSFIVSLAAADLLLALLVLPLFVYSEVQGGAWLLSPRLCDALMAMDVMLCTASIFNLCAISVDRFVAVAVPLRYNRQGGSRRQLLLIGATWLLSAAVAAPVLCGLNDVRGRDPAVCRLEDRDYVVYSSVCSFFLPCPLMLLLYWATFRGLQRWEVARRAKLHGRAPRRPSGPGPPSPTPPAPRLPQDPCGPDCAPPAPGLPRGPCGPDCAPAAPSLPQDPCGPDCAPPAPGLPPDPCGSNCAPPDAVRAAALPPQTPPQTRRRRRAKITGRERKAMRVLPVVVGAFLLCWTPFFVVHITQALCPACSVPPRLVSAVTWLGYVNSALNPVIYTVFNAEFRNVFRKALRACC
Put plainly: radioligand binding assay, dopamine D4.4 receptor, [3H]spiperone. The following applies: CHO cell membranes, mean of two to five experiments in triplicate, read-out: Ki D4.4.
Text: as §1, §2

Another assay has as its target T3, 5-HT1A (Sus scrofa, UniProt A0A4X1UTF5).
T3 construct: membrane preparations from porcine cortex; from tissue; host or cells: porcine cortex
T3 sequence (A0A4X1UTF5 1-422): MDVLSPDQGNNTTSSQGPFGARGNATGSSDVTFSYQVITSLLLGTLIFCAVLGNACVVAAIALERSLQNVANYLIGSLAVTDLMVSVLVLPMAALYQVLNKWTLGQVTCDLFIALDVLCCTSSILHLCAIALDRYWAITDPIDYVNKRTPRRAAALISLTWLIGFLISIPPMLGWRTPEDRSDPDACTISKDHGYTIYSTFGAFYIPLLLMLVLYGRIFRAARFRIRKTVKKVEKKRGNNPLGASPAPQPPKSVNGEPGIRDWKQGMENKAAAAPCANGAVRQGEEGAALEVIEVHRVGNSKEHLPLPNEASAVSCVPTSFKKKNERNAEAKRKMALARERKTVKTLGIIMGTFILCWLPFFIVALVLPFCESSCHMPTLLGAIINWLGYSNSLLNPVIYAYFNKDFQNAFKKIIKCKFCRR
Put plainly: radioligand binding assay, serotonin 5-HT1A receptor, [3H]WAY 100635. The following applies: porcine cortex membranes, mean of two to five experiments in triplicate, read-out: Ki 5-HT1a. The procedure: (§3) The investigation of receptor binding to the serotonin and adrenergic receptors was done according to a published procedure (Heindl, C. et al., Tetrahedron: Asymmetry (2003), 14, 3141-3152). In detail, for the determination of the binding properties to serotonin receptors membrane preparations from porcine cortex was incubated with the 5-HT1A selective radioligand [^3H]WAY 100635 or with the 5-HT2 selective compound [^3H]ketanserin. The measurement of alpha-1 and alpha-2 receptor binding was achieved when utilizing porcine cortical membranes and the selective radioligands [^3H]prazosin (for alpha-1) and [^3H]RX821002 in an assay similar to that described above.
as §2

Another assay deals with T4, 5-HT2 (Sus scrofa, UniProt P50129).
T4 construct: membrane preparations from porcine cortex; from tissue; host or cells: porcine cortex
T4 sequence (P50129 whole entry): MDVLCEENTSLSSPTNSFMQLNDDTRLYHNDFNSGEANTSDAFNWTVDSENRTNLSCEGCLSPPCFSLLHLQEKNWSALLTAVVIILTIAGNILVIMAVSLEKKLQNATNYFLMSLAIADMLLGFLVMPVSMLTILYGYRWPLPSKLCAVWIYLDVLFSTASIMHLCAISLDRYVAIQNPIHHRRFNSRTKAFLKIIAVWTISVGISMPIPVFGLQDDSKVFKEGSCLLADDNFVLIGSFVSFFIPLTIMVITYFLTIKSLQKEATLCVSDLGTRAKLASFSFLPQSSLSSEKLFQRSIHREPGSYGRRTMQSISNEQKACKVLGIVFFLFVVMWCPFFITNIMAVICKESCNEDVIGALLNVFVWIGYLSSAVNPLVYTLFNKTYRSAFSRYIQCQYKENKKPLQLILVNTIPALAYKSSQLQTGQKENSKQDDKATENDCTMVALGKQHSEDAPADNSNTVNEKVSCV
Put plainly: radioligand binding assay, serotonin 5-HT2 receptor, [3H]ketanserin. The arrangement: species or system porcine.

For a further assay, the target named is alpha-1. The assay can be described thus: radioligand binding assay, adrenergic alpha-1 receptor, [3H]prazosin. The following applies: porcine cortical membranes, mean of two to five experiments in triplicate, read-out: Ki alpha1. The procedure: as §3, §2
Setting [1] is: porcine cortex membranes, [3H]ketanserin, mean of two to five experiments in triplicate, read-out: Ki 5-HT2.

For eight compounds, Ki results are on record in patent EP2058306A1, “Heteroaryl-substituted 2-pyridinyl-methylamine derivatives” (SCHWARZ PHARMA AG, priority 2007, dated 2009).

Read-outs that look alike come from different tables or passages of the source.

T1 sequence (P50130 whole entry): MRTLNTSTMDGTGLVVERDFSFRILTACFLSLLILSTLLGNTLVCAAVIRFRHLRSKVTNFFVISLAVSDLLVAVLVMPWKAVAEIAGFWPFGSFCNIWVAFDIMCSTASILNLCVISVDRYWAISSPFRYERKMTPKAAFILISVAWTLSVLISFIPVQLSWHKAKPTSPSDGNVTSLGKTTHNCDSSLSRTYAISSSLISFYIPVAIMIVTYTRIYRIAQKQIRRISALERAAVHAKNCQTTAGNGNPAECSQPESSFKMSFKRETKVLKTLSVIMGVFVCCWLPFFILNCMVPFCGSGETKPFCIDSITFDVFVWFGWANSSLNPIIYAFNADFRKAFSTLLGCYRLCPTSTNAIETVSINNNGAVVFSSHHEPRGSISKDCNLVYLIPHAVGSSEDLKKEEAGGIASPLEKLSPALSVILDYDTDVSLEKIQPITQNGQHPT
human D3, sequence (P35462 whole entry): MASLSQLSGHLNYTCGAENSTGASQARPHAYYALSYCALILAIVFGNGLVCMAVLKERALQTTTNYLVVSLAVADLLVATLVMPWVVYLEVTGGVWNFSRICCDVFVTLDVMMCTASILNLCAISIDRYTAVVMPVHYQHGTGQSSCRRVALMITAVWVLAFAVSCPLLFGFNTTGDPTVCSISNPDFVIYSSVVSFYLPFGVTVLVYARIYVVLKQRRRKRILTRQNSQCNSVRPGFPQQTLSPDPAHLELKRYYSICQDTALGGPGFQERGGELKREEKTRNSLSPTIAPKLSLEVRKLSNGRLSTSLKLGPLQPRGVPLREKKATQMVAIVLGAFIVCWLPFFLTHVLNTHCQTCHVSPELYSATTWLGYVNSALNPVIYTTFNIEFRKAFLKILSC
human D2long, D2short, sequence (P14416 whole entry): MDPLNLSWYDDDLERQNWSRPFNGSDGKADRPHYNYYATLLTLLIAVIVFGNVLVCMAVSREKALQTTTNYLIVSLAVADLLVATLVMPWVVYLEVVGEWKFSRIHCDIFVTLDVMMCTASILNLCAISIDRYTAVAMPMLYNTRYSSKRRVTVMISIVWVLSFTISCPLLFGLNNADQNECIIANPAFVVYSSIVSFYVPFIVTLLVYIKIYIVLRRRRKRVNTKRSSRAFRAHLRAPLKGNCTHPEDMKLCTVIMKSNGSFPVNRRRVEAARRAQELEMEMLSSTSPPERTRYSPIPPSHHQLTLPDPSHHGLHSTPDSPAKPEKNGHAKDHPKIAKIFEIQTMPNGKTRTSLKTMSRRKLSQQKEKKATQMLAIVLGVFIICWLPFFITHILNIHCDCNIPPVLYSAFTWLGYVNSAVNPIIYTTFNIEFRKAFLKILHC

Usually Ki stands for a measure of affinity in units of concentration, obtained from inhibition or displacement. Turning to `COc1cscc1C(=O)N1CCC(F)(CNCc2ccc(C)cn2)CC1` [Example E20, [4-Fluoro-4-[[(5-mothylpyridin-2-ylmothyl)amino]methyl]piperidin-1-yl]-4-methoxythien-3-yl-methanone], the inhibition constant Ki was above 5 µM at dopamine D1 receptor; above 5 µM at human D2long, D2short; above 5 µM at human D3; 0.501 to 5 µM on human D4.4; 0.05 to 0.5 µM at 5-HT1A; above 5 µM on 5-HT2. On alpha-1, the inhibition constant (Ki) was above 5 µM.
Take `Cc1ccc(CNCC2(F)CCN(C(=O)c3cc4sccc4s3)CC2)nc1` [Example E26, [4-Fluoro-4-[[(5-methylpyridin-2-ylmethyl)amino]methyl]piperidin-1-yl]-thieno[3,2-b]thien-2-yl-mothanone]: the Ki on dopamine D1 receptor was above 5 µM; on human D2long, D2short it was above 5 µM; on human D3, above 5 µM; at human D4.4 it was 0.501 to 5 µM; on 5-HT1A, below 0.05 µM; at 5-HT2, above 5 µM. In addition, the Ki at alpha-1 lay within 0.501 to 5 µM.
In the case of `COc1c(C(=O)N2CCC(F)(CNCc3ccc(C)cn3)CC2)csc1Br` [Example E22, 5-Bromo-4-methoxythion-3-yl-[4-fluoro-4-[[(5-methylpyridin-2-ylmethyl)amino]methyl]piperidin-1-yl]-methanone], the Ki at dopamine D1 receptor was above 5 µM; on human D2long, D2short, above 5 µM; on human D3 it was above 5 µM; at human D4.4 it was 0.501 to 5 µM; at 5-HT1A, below 0.05 µM; on 5-HT2, above 5 µM. At alpha-1, the Ki fell in the range of 0.501 to 5 µM.
In the case of `Cc1ccc(CNCC2(F)CCN(C(=O)c3ccc(-c4csc(C)n4)s3)CC2)nc1` [Example E16, [4-Fluoro-4-[[(5-methylpyridin-2-ylmethyl)amino]methyl]piperidin-1-yl]-5-(2-methylthiazol-4-yl)thien-2-yl-methanone], the Ki on dopamine D1 receptor is above 5 µM; at human D2long, D2short it was above 5 µM; on human D3, 0.501 to 5 µM; at human D4.4, above 5 µM; at 5-HT1A, 0.05 to 0.5 µM; on 5-HT2 (setting [1]), above 5 µM. Further, on alpha-1, the Ki is 0.501 to 5 µM.
As to `Cc1ccc(CNCC2(F)CCN(C(=O)c3cnn4ccccc34)CC2)nc1` [Example E43, [4-Fluoro-4-[[(5-methylpyridin-2-ylmethyl)amino]methyl]piperidin-1-yl]-pyrazolo[1,5-a]pyridin-3-yl-methanone], the Ki on dopamine D1 receptor was above 5 µM; on human D2long, D2short, above 5 µM; on human D3, above 5 µM; on human D4.4 it was above 5 µM; at 5-HT1A, 0.05 to 0.5 µM; on 5-HT2 (setting [1]) it was above 5 µM. Moreover, at alpha-1, the Ki was 0.501 to 5 µM.
As to `Cc1ccc(CNCC2(F)CCN(C(=O)c3ccsc3Br)CC2)nc1` [Example E19, 2-Bromothien-3-yl-[4-fluoro-4-[[(5-methylpyridin-2-ylmethyl)amino]methyl]piperidin-1-yl]-methanone], the Ki was above 5 µM at dopamine D1 receptor; above 5 µM at human D2long, D2short; above 5 µM at human D3; 0.501 to 5 µM at human D4.4; below 0.05 µM at 5-HT1A; above 5 µM at 5-HT2 (setting [1]). Also, the inhibition constant (Ki) on alpha-1 is 0.501 to 5 µM.
Consider `Cc1ccc(CNCC2(F)CCN(C(=O)c3cc4ccccc4o3)CC2)nc1` [Example E35, Benzo[b]furan-2-yl-[4-fluoro-4-[[(5-methylpyridin-2-ylmothyl)amino]methyl]piperidin-1-yl]-methanone], for which the Ki is above 5 µM on dopamine D1 receptor; above 5 µM at human D2long, D2short; above 5 µM at human D3; 0.501 to 5 µM on human D4.4; 0.05 to 0.5 µM at 5-HT1A; above 5 µM on 5-HT2. The Ki at alpha-1 was 0.501 to 5 µM.
In the case of `Cc1ccc(CNCC2(F)CCN(C(=O)c3sc(Br)c4c3OCCO4)CC2)nc1` [Example E30, 7-Bromo-2,3-dihydrothieno[3,4-b][1,4]dioxin-5-yl-[4-fluoro-4-[[5-methylpyridin-2-ylmethyl)aminolmothyl]piperidin-1-yl]-methanone], the Ki on dopamine D1 receptor is above 5 µM; at human D2long, D2short it was above 5 µM; at human D3, 0.501 to 5 µM; on human D4.4, 0.501 to 5 µM; at 5-HT1A, below 0.05 µM; at 5-HT2, above 5 µM. Besides, the Ki on alpha-1 lay within 0.501 to 5 µM.
